Measured values from patent US4362743A, “Antibacterial monic acid esters” (Beecham Group Limited, priority 1980, dated 1982).
Converted amounts (≈) assume the structure as drawn. Like-named read-outs stand apart in the source and are kept apart here.

Assays:
[1] = test system: M. suipneumoniae NB12; assay: Anti-mycoplasmal activity in vitro MIC; format: cell-based; details: Mesomycoplasma hyopneumoniae, 144 h; M. suipneumoniae NB12; Friis broth, 0.9% agarose, 6 days 37° C.; read-out: M.I.C.
[2] = test system: M. suipneumoniae HK (2); assay: Anti-mycoplasmal activity in vitro MIC; format: cell-based; details: Mesomycoplasma hyopneumoniae, 144 h; M. suipneumoniae HK (2); Friis broth, 0.9% agarose, 6 days 37° C.; read-out: M.I.C.
[3] = test system: M. suipneumoniae J2206/183b; assay: Anti-mycoplasmal activity in vitro MIC; format: cell-based; details: Mesomycoplasma hyopneumoniae, 144 h; M. suipneumoniae J2206/183b; Friis broth, 0.9% agarose, 6 days 37° C.; read-out: M.I.C.
[4] = test system: M. suipneumoniae MS16; assay: Anti-mycoplasmal activity in vitro MIC; format: cell-based; details: Mesomycoplasma hyopneumoniae
[5] = test system: M. suipneumoniae PW/C/210; assay: Anti-mycoplasmal activity in vitro MIC; format: cell-based; details: Mesomycoplasma hyopneumoniae, 144 h
[6] = test system: M. suipneumoniae LABER; assay: Anti-mycoplasmal activity in vitro MIC; format: cell-based; details: Mesomycoplasma hyopneumoniae, 144 h
[7] = test system: M. suipneumoniae TAM 6N; assay: Anti-mycoplasmal activity in vitro MIC; format: cell-based; details: Mesomycoplasma hyopneumoniae, TAM6N, 144 h; M. suipneumoniae TAM 6N; Friis broth, 0.9% agarose, 6 days 37° C.; read-out: M.I.C.
[8] = test system: M. suipneumoniae ATCC 25095; assay: Anti-mycoplasmal activity in vitro MIC; format: cell-based; details: Mesomycoplasma hyopneumoniae, ATCC25095, 144 h; M. suipneumoniae ATCC 25095; Friis broth, 0.9% agarose, 6 days 37° C.; read-out: M.I.C.
[9] = test system: M. hyorhinis ATCC 25021; assay: Anti-mycoplasmal activity in vitro MIC; format: cell-based; details: Mesomycoplasma hyorhinis, ATCC25021, 144 h
[10] = test system: M. hyosynoviae ATCC 25591; assay: Anti-mycoplasmal activity in vitro MIC; format: cell-based; details: 144 h
[11] = test system: M. bovigenitalium ATCC 14173; assay: Anti-mycoplasmal activity in vitro MIC; format: cell-based; details: 144 h
[12] = test system: M. dispar NCTC 10125; assay: Anti-mycoplasmal activity in vitro MIC; format: cell-based; details: 144 h
[13] = test system: M. gallisepticum S6; assay: Anti-mycoplasmal activity in vitro MIC; format: cell-based; details: Mycoplasmoides gallisepticum
[14] = test system: E. coli El; assay: Veterinary bacteria MIC; format: cell-based; details: Escherichia coli
Procedure: (§1) The values were determined using a two fold serial dilutions in Diagnostic Sensitivity Test Agar with an inoculum of 10^4 organisms and incubation for 18 hours at 37° C.

[15] = test system: E. coli NCTC 10418; assay: Veterinary bacteria MIC; format: cell-based; details: Escherichia coli
Procedure: as §1

[16] = test system: Erysipelothrix rhusiopathiae NCTC 8163; assay: Veterinary bacteria MIC; format: cell-based; details: NCTC8163; Erysipelothrix rhusiopathiae NCTC 8163; Diagnostic Sensitivity Test Agar, 18 hours 37° C.; read-out: M.I.C.
Procedure: as §1

[17] = test system: Past. haemolytica PA5; assay: Veterinary bacteria MIC; format: cell-based; details: Mannheimia haemolytica; Past. haemolytica PA5; Diagnostic Sensitivity Test Agar, 18 hours 37° C.; read-out: M.I.C.
Procedure: as §1

[18] = test system: Past. multocida PA1; assay: Veterinary bacteria MIC; format: cell-based; details: Pasteurella multocida, Diagnostic Sensitivity Test Agar, 18 hours 37° C.
Procedure: as §1

[19] = test system: Past. multocida PA2; assay: Veterinary bacteria MIC; format: cell-based; details: Pasteurella multocida; Past. multocida PA2; Diagnostic Sensitivity Test Agar, 18 hours 37° C.; read-out: M.I.C.
Procedure: as §1

[20] = test system: S. dublin S7; assay: Veterinary bacteria MIC; format: cell-based; details: Salmonella enterica
Procedure: as §1

[21] = test system: S. typhimurium S18; assay: Veterinary bacteria MIC; format: cell-based; details: Salmonella enterica
Procedure: as §1

[22] = test system: Staph. aureus 152 (pen. sens); assay: Veterinary bacteria MIC; format: cell-based; details: Staphylococcus aureus, Diagnostic Sensitivity Test Agar, 18 hours 37° C.
Procedure: as §1

[23] = test system: Staph. aureus B4 (pen. resistant); assay: Veterinary bacteria MIC; format: cell-based; details: Staphylococcus aureus, Diagnostic Sensitivity Test Agar, 18 hours 37° C.
Procedure: as §1

[24] = test system: Staph. aureus Oxford; assay: Veterinary bacteria MIC; format: cell-based; details: Staphylococcus aureus, Diagnostic Sensitivity Test Agar, 18 hours 37° C.
Procedure: as §1

[25] = test system: Strep. agalactiae SPA1; assay: Veterinary bacteria MIC; format: cell-based; details: Streptococcus agalactiae, Diagnostic Sensitivity Test Agar, 18 hours 37° C.
Procedure: as §1

[26] = test system: Strep. dysgalactiae SPD1; assay: Veterinary bacteria MIC; format: cell-based; details: Streptococcus dysgalactiae, Diagnostic Sensitivity Test Agar, 18 hours 37° C.
Procedure: as §1

[27] = test system: Strep. suis (Group D) SPS11; assay: Veterinary bacteria MIC; format: cell-based; details: Streptococcus suis
Procedure: as §1

[28] = test system: Strep. uberis SPU1; assay: Veterinary bacteria MIC; format: cell-based; details: Streptococcus uberis, Diagnostic Sensitivity Test Agar, 18 hours 37° C.
Procedure: as §1

[29] = test system: Sarcina lutea 8340; assay: Human bacteria MIC; format: cell-based; details: Micrococcus luteus; Sarcina lutea 8340; nutrient agar, 5% chocolated horse blood, 18 hours 37° C.; read-out: M.I.C.
Procedure: The values were determined by serial dilutions in nutrient agar with 5% chocolated horse blood after incubations for 18 hours at 37° C.

[30] = Serum binding by ultrafiltration; format: in vitro ADME; details: pig, porcine serum, 8 mcg/ml, read-out: % bound to pig serum (converted)
Procedure: Serum binding was assessed by ultrafiltration of porcine serum containing compounds at 8 mcg/ml, and through an Amicon CF50A ultrafiltration cone. Separation of ultrafiltrate was achieved by centrifugation. Unbound concentrations of compound were measured in the ultrafiltrate by microbiological assay (B. subtilis ATCC 6633) against standards prepared in saline.

Which results are given for `C/C(=C\C(=O)OC1CCC(=NO)CC1)C[C@@H]1OC[C@H](C[C@@H]2O[C@H]2[C@@H](C)[C@H](C)O)[C@@H](O)[C@H]1O` (some centres unmarked) [Example 3, 4-Hydroxyiminocyclohexyl monate A]?
MIC [1]: 0.5 µg/mL (≈ 1.1 µM); MIC [2]: 0.5 µg/mL (≈ 1.1 µM); MIC [3]: 0.5 µg/mL (≈ 1.1 µM); MIC ([4]; MS16, 144 h): 0.25 µg/mL (≈ 0.549 µM); MIC [5]: 0.25 µg/mL (≈ 0.549 µM); MIC [6]: 0.25 µg/mL (≈ 0.549 µM); MIC [7]: 0.5 µg/mL (≈ 1.1 µM); MIC [8]: 0.5 µg/mL (≈ 1.1 µM); MIC [9]: 0.25 µg/mL (≈ 0.549 µM); MIC [10]: 0.1 µg/mL (≈ 0.22 µM); MIC [11]: 0.025 µg/mL (≈ 0.0549 µM); MIC [12]: 0.1 µg/mL (≈ 0.22 µM); MIC ([13]; S6, 144 h): 5 µg/mL (≈ 11 µM); MIC ([14]; E. coli El, Diagnostic Sensitivity Test Agar, 18 hours 37° C., read-out: M.I.C.): > 80 µg/mL; MIC ([15]; NCTC10418, E. coli NCTC 10418, Diagnostic Sensitivity Test Agar, 18 hours 37° C., read-out: M.I.C.): > 80 µg/mL; MIC [16]: 10 µg/mL (≈ 22 µM); MIC [17]: 5 µg/mL (≈ 11 µM); MIC [18]: 1.25 µg/mL (≈ 2.74 µM); MIC [19]: 0.312 µg/mL (≈ 0.685 µM); MIC ([20]; S. dublin S7, Diagnostic Sensitivity Test Agar, 18 hours 37° C., read-out: M.I.C.): > 80 µg/mL; MIC ([21]; S. typhimurium S18, Diagnostic Sensitivity Test Agar, 18 hours 37° C., read-out: M.I.C.): > 80 µg/mL; MIC [22]: 1.25 µg/mL (≈ 2.74 µM); MIC [23]: 2.5 µg/mL (≈ 5.49 µM); MIC [24]: 1.25 µg/mL (≈ 2.74 µM); MIC [25]: 0.625 µg/mL (≈ 1.37 µM); MIC [26]: 0.312 µg/mL (≈ 0.685 µM); MIC ([27]; Strep. suis (Group D) SPS11, Diagnostic Sensitivity Test Agar, 18 hours 37° C., read-out: M.I.C.): 2.5 µg/mL (≈ 5.49 µM); MIC [28]: 0.156 µg/mL (≈ 0.342 µM); MIC [29]: > 100 µg/mL; fraction unbound [30]: 0.355

What does the source list for `C/C(=C\C(=O)OCCCC(=NO)c1ccccc1)C[C@@H]1OC[C@H](C[C@@H]2O[C@H]2[C@@H](C)[C@H](C)O)[C@@H](O)[C@H]1O` [Example 1, 4-Hydroxyimino-4-phenylbutyl monate A]?
MIC [1]: 0.1 µg/mL (≈ 0.198 µM); MIC [2]: 0.25 µg/mL (≈ 0.494 µM); MIC [3]: 0.25 µg/mL (≈ 0.494 µM); MIC ([4]; 144 h, M. suipneumoniae MS16, Friis broth, 0.9% agarose, 6 days 37° C., read-out: M.I.C.): 0.1 µg/mL (≈ 0.198 µM); MIC ([5]; M. suipneumoniae PW/C/210, Friis broth, 0.9% agarose, 6 days 37° C., read-out: M.I.C.): 0.1 µg/mL (≈ 0.198 µM); MIC ([6]; M. suipneumoniae LABER, Friis broth, 0.9% agarose, 6 days 37° C., read-out: M.I.C.): 0.1 µg/mL (≈ 0.198 µM); MIC [7]: 0.25 µg/mL (≈ 0.494 µM); MIC [8]: 0.25 µg/mL (≈ 0.494 µM); MIC [9]: 0.1 µg/mL (≈ 0.198 µM); MIC ([10]; M. hyosynoviae ATCC 25591, Friis broth, 0.9% agarose, 6 days 37° C., read-out: M.I.C.): 0.25 µg/mL (≈ 0.494 µM); MIC [11]: 0.025 µg/mL (≈ 0.0494 µM); MIC [12]: 0.05 µg/mL (≈ 0.0989 µM); MIC ([13]; 144 h, M. gallisepticum S6, Friis broth, 0.9% agarose, 6 days 37° C., read-out: M.I.C.): 10 µg/mL (≈ 19.8 µM); MIC ([14]; 18 h): > 80 µg/mL; MIC ([15]; NCTC10418, 18 h): > 80 µg/mL; MIC [16]: 20 µg/mL (≈ 39.6 µM); MIC [17]: 10 µg/mL (≈ 19.8 µM); MIC [18]: 2.5 µg/mL (≈ 4.94 µM); MIC [19]: 0.625 µg/mL (≈ 1.24 µM); MIC ([20]; S7, 18 h): > 80 µg/mL; MIC ([21]; TYPHIMURIUM, 18 h): > 80 µg/mL; MIC [22]: 0.625 µg/mL (≈ 1.24 µM); MIC [23]: 0.625 µg/mL (≈ 1.24 µM); MIC [24]: 0.625 µg/mL (≈ 1.24 µM); MIC [25]: 0.625 µg/mL (≈ 1.24 µM); MIC [26]: 0.625 µg/mL (≈ 1.24 µM); MIC ([27]; 18 h): 5 µg/mL (≈ 9.89 µM); MIC [28]: 0.156 µg/mL (≈ 0.309 µM); fraction unbound [30]: < 0.08
